Legend:
S. aureus MRSA 272123 = experiment: MIC determination; assay type: cell-based, Staphylococcus aureus; settings: 18 h
A-549 cells = experiment: Cytotoxicity with ROS scavenger NAC (SRB); assay type: cell-based; settings: 10 mM NAC pre-treatment 2 h, co-treatment 72 h
Text: (§1) Additionally, to assess whether the ROS induction contributed to the cytotoxicity triggered by these complexes, we used a ROS scavenger, N-acetyl-cysteine (NAC), in combination with 1, 3, 5 or 8. […] Indeed, it is also possible that the cytotoxicity induced by 5 is not by ROS, despite the induction observed in Figure 7A.
(§2) Figure S27- Protective mechanism of NAC against Cu(II) complexes. Addition of NAC can protect cells from the cytotoxic effects of the Cu(II) complexes A-375 (A) and A-549 (B) cells were pre-treated with 10 mM of ROS scavenger N-acetylcysteine (NAC) for 2 h, then co-treated with freshly prepared Cu(II) complexes (1, 3, 5 and 8) for 72 h. Cell viability was measured via SRB assay (2 biological replicates, each done in duplicate). The error bars represent standard error of the mean. Student t-test was used for statistical analysis, *p<0.05, **p<0.01

A-375 cells [1] = experiment: Cytotoxicity with ROS scavenger NAC (SRB); assay type: cell-based; settings: 10 mM NAC pre-treatment 2 h, co-treatment 72 h
Text: as §1, §2

DNA-EB system = experiment: DNA-ethidium bromide fluorescence competition; assay type: binding
Experimental: The fluorescence emission experiments were carried out in a Perkin Elmer LS 55 spectrofluorimeter. A pulsed Xenon lamp (50 Hz) provided the excitation light. A thermostated water bath recycler linked to the cell holder provided temperature control within ± 0.1 °C. The measurements were done in a 1000 µL quartz cell with an optical path length of 1.0 cm with the complexes solution added directly to the DNA-EB (ethidium bromide) solution in the cell. A glass syringe connected to a Mitutoyo micrometric screw added accurate volumes each time (one complete turn of the screw is 8.2 µL, 1/50 of a turn is the minimum possible addition).
Moreover, this complex reduces the emission of the EB-DNA system to ca. 40 % of its initial intensity with an interaction constant of (1.18 ± 0.03) × 10^4 M^−1 (Fig. S22, constant calculated with HypSpec2014 (28)).
Considering the results of the melting temperature assay, the DNA-EB fluorescence quenching was also used to test complex 7. […] The accessible fraction fa was determined as 0.26 and the interaction constant as (1.44 ± 0.02) ×10^5 M^−1 (HypSpec2014 (28)). As EB has a second mode of interaction with DNA due to electrostatic interactions on the external part of the biomolecule backbone (30), it is possible that the complexes are only being able to reach for this fraction. […]

A-375 cells [2] = experiment: γH2AX staining for DNA double-strand breaks; assay type: cell-based
Experimental: Indeed, we examined whether DNA nicks induced by the complexes on pure plasmid DNA would reflect in cell culture as increased DNA break formation. To test this, A-375 cells were stained using γH2AX, which is a common marker for DSBs (Figure 7B). […] For complex 1 the opposite effect was observed and despite its lower ability to induce ROS formation, the DSB were the highest among the group.
(§3) 5 × 10^4 number of A-375 and A-549 cells were seeded on 12-well plates, and the next day cells were treated with either copper complexes (calculated IC70 values) or cisplatin (15 μM). Following 48 h of treatment, cells were trypsinized, centrifuged and resuspended in PBS solution supplemented with 1% fetal bovine serum (FBS) (10^6 cells/mL).
The Muse ɣH2A.X Activation Dual Detection Kit (Luminex, MCH200101) protocols were followed with minor changes. 1 × 10^5 cells were mixed with ice-cold 1X Fixation Buffer at the same volume for 5 min. Cells were centrifuged (600 g, 5 min), and the pellet was suspended with 100 μL of ice-cold 1X Permeabilization Buffer (10 min, on ice), and centrifuged again. The cell pellet was resuspended with 50 μL of antibody mixture of (20X) Anti-phospho-Histone H2A.X (Ser139), Alexa Fluor 555 and (20X) Anti-H2A.X, PECy5 antibodies. Following 30 min of antibody staining, cells were centrifuged and resuspended with 1X Assay Buffer. DNA breaks were analysed with Muse Cell Analyzer (Merck Millipore).

A-375 cells [3] = experiment: ROS activation via dihydroethidium staining, flow cytometry; assay type: cell-based; settings: 48 h
Text: Since reactive oxygen species appeared to be involved in the nicking activity of the complexes (Supplementary Figure S24), we investigated whether there was an increase in ROS formation in cells upon drug treatment. Dihydroethidium (DHE) is a reduced form of ethidium, after oxidation with superoxide (ROS), it is converted into 2-hydroxy ethidium, which is a chemical that emits red fluorescence and intercalates DNA. […] Similar results were obtained using A-549 cells, but with much milder induction of ROS except for 8, which remained high (Supplementary Figure S26).
as §3
Oxidative stress levels were assessed by Muse Oxidative Stress Kit (Luminex, MCH100111) using the same protocol as previously described (21).

A-375 cells [4] = experiment: Apoptosis by Annexin V/7-AAD and Caspase 3/7 flow cytometry; assay type: cell-based; settings: 48 h, Annexin-V and caspase 3/7
Experimental: To determine the mode of cell death, A-375 cells were incubated with the Cu complexes and cisplatin for 48 h and, induction of apoptosis was evaluated using both Annexin-V staining and activation of caspase 3/7 in response to drug treatment. While Annexin-V staining relies on the loss of plasma membrane asymmetry, caspases 3 and 7 are critical proteases, which are responsible for the cleavage of many cellular proteins. […] Similar results were obtained in A-549 cells (Supplementary Figure S28).
as §3
Annexin V & Dead Cell Kit (Luminex, MCH100105) protocols were followed for Annexin V activation. Briefly, 1 × 10^5 cells were stained with Annexin V and 7-AAD solution in a 1:1 ratio and incubated at room temperature for 20 min. The apoptotic cell population was evaluated with Muse Cell Analyzer (Merck Millipore).
Caspase-3/7 Kit (Luminex, MCH100108) protocols were followed for Caspase 3/7 staining. 2 × 10^5 cells were stained with 5 μL of Caspase 3/7 antibody (1:8 dilution in PBS) and incubated at room temperature for 30 min. Then, the cells were stained with 100 μL of 7-AAD antibody mixture (1:75 dilution with 1 × Assay Buffer) for 5 min. Caspase 3/7 and 7-AAD positivity were assessed with Muse Cell Analyzer (Merck Millipore).

In the case of CC(=O)[O-].O=C(NN=Cc1ccc2cccc([O-])c2n1)c1ccccc1.[Cu+2] [Complex 1, [Cu(HL^1)(AcO)]], the MIC (S. aureus MRSA 272123) is reported as 50 µM, the “effect of NAC on cytotoxicity” value (A-549 cells) is reported as “significantly reduced” and the “effect of NAC on cytotoxicity” value (A-375 cells [1]) is reported as “significantly reduced”. The interaction constant (DNA-EB system; DNA-EB fluorescence quenching, HypSpec2014) was “(1.18 ± 0.03) × 10^4 M^−1”, the “emission of the EB-DNA system, % of its initial intensity” value (DNA-EB system; titration 0 – 51.6 µM, HEPES pH 7.4) was “ca. 40%” and the “DSB induction (γH2AX), in words” value (A-375 cells [2]) was “highest levels of DSB induction”.

With [Cu+2].[O-]C(=NN=Cc1ccc2cccc([O-])c2n1)c1ccc(F)cc1 [Complex 3, [Cu(L^3)]3] the “effect of NAC on cytotoxicity” value (A-549 cells) was “significantly reduced”, the “effect of NAC on cytotoxicity” value (A-375 cells [1]) was “significantly reduced” and the ROS positivity (A-375 cells [3]) was 60%. For the same compound, the “induction of apoptosis, in words” value (A-375 cells [4]) was “performed well”.

For COc1ccc(C([O-])=NN=Cc2ccc3cccc([O-])c3n2)cc1.[Cu+2] [Complex 5, [Cu(L^5)]3], the ROS positivity (A-375 cells [3]) was about 80%, the “induction of apoptosis, in words” value (A-375 cells [4]) was “triggered apoptosis only mildly” and the “DSB induction (γH2AX), in words” value (A-375 cells [2]) was “highest levels of DSB induction”. The “DNA breaks (γH2AX)” value (A-375 cells [2]; 48 h) was about 80%.
